In paper PMC11351458, “Bioaffinity Ultrafiltration Combined with HPLC-ESI-qTOF-MS/MS for Screening Potential Bioactive Components from the Stems of Dendrobium fimbriatum and In Silico Analysis” (Antioxidants, 2024):
Like-named read-outs stand apart in the source and are kept apart here. Marks after values point to notes of the source that are not given here.

What was measured:
[1] = target: T1, acetylcholinesterase (AChE) (Electrophorus electricus, UniProt O42275); assay: Bioaffinity ultrafiltration assay with acetylcholinesterase; assay type: binding; settings: components of EtOAc extract; EF = (A1 − A2)/A0 × 100%
T1 construct: purchased Sigma-Aldrich (St. Louis, MO, USA)
Protocol: (§1) The bioaffinity ultrafiltration assay was conducted using a previously described procedure. […] The reaction was conducted at 37 °C for 30 min, then centrifuged using a 14,000× g ultracentrifuge filter at 30 °C for 15 min. The filtrate was removed and 200 μL of Tris-HCl buffer was added to the ultracentrifuge filter and centrifuged at 14,000× g for 15 min at 30 °C. The previous step was repeated 3 times and the filtrate was removed. Then, 200 μL of methanol was added to the ultracentrifuge filter and centrifuged at 14,000× g for 15 min at 30 °C. The previous step was repeated 3 times and the filtrate was collected. The filtrate was concentrated and then dissolved in 50 μL MeOH for HPLC analysis. In addition, the processing of iNOS-ligand complexes was conducted following previously reported methods, while inducible nitric oxide synthase bioaffinity ultrafiltration assays were performed, as detailed above.
(§2) The binding affinity of compounds and enzymes using enrichment factor (EF) was assessed, and was counted as follows: A1, A2, and A0 represent the peak areas of picked compounds acquired from the extracts incubated with activated, inactivated, and no acetylcholinesterase, respectively. EF (%) = (A1 − A2)/A0 × 100%

[2] = target: T2, inducible nitric oxide synthase (iNOS) (Mus musculus, UniProt P29477); assay: Bioaffinity ultrafiltration assay with inducible nitric oxide synthase; assay type: binding; settings: components of EtOAc extract; EF = (A1 − A2)/A0 × 100%
T2 construct: purchased Sigma-Aldrich (St. Louis, MO, USA)
Protocol: as §1, §2

[3] = Ferric reducing antioxidant power (FRAP); settings: mM Trolox equivalents per g
Protocol: FRAP was measured by the method reported in the previous literature. The working solution was mixed with acetate buffer (pH 3.6), ferric chloride solution (20 mM), and TPTZ solution (10 mM TPTZ in 40 mM HCl) at a proportion of 10:1:1, respectively, and freshly prepared before being used. A total of 900 μL of the working solution was warmed to 37 °C and then mixed with 100 μL of the diluted sample, blank or standard, in a microcentrifuge tube. The tubes were vortexed in a dry bath at 37 °C for 40 min. The absorbance was measured at 593 nm. The standard curve was linear between 0 and 100 mM Trolox. Results were expressed as mM TE/g dry weight. Additional dilution was needed if the FRAP value measured was over the linear range of the standard curve.

[4] = DPPH radical scavenging activity; settings: 50% free radical scavenging; for EC50: isolated components, read-out: SC50 DPPH
Protocol: The DPPH radical scavenging effect was measured based on the reported method. BHT was applied as a positive control. DPPH solution was prepared diluted by EtOH to reach the final concentration of 400 µM. Different concentrations (400, 200, 100, 50, and 25 µg/mL) of extracts or compounds (100 µL) were mixed with DPPH solution (100 µL) and incubated for 30 min at room temperature and in darkness, and the absorbance of the mixture was measured at 520 nm.

[5] = ABTS cation radical scavenging activity; settings: 50% free radical scavenging; for EC50: isolated components, read-out: SC50 ABTS
Protocol: The ABTS cation radical scavenging effect was measured, as previously described by. […] The working solution was diluted by EtOH to reach the absorbance of 0.70 ± 0.02 at 740 nm for further experiments. Different concentrations (400, 200, 100, 50, and 25 µg/mL) of extracts or compounds (10 µL) were mixed with the working solution (190 μL). The mixture was incubated at room temperature for 6 min, and the antioxidant activity of the mixture was determined by the decrease in absorbance measured at 740 nm.

[6] = test system: NO production in RAW 264.7 cells; assay: Nitric oxide (NO) inhibition assay; assay type: cell-based, murine; settings: Mus musculus
Protocol: In this experiment, the RAW 264.7 macrophage cell line was used. The cells were stored at −196 °C in liquid nitrogen. After thawing, the cells were cultured in DMEM at 37 °C and 5% CO2 supplemented with 10% FBS, […] L-glutamine, 1 mM sodium pyruvate, 100 μg/mL streptomycin, and 100 U/mL penicillin.
NO inhibition assay was slightly modified from the reported method. The day before the experiment, RAW 264.7 cells were seeded into 96-well plates with 2 × 10^4 cells per well. The cells were pretreated with the sample solution, and then incubated at 37 °C for 1 h. After incubation, the cells were treated with 100 ng/mL of LPS to induce an inflammatory response. After incubation at 37 °C for 20 h, 50 μL of the supernatant was transferred from each well to another 96-well plate and mixed with an equal volume of Griess reagent. Finally, the absorbance was acquired at 550 nm after 20 min of incubation.

[7] = Superoxide radical scavenging activity; settings: 50% free radical scavenging; for EC50: isolated components, read-out: SC50 Superoxide
Protocol: A superoxide radical scavenging assay was performed based on previously reported methods. The superoxide radical was generated in 16 mM Tris-HCl buffer (pH 8.0) containing 50 μL of NBT (300 μM), 50 μL of PMS (120 μM), and 50 μL of different concentrations of the test sample. The reaction was initiated by adding 50 μL of NADH (468 μM) solution to the mixture. After incubating at room temperature for 5 min, the activity of samples was determined by the decrease in absorbance measured at 560 nm against the sample concentration.

[8] = target: α-glucosidase; assay: α-Glucosidase inhibitory activity assay; assay type: biochemical; settings: isolated compounds
Protocol: To test the anti-α-glucosidase effect of each solvent extract and each component, a previously described method was used. […] The α-glucosidase solution was diluted to 1 U/mL with 0.1 M sodium phosphate buffer (pH 6.8). Various concentrations of extract or compound (100 µL) and α-glucosidase solution (20 µL) were mixed. Subsequently, 0.53 mM p-NPG (380 µL) was added and incubated at 37 °C for 40 min. The reaction was stopped by adding 500 μL of 0.1 M Na2CO3 solution, and the absorbance was detected at 405 nm.
α-glucosidase inhibition (%) was counted as follows (Asample and Acontrol represent the absorbance of the tested sample and control, respectively):α-glucosidase inhibition (%) = (Acontrol − Asample)/Acontrol × 100%

[9] = target: T1, acetylcholinesterase (AChE); assay: biochemical
Protocol: The acetylcholinesterase inhibitory assay was carried out applying a method described in reference. Briefly, 0.1 M sodium phosphate buffer (pH 8.0, 140 μL), DTNB (10 μL), sample (20 μL), and AChE solution (15 μL) were added to a 96-well microplate and incubated at room temperature for 10 min. Finally, the absorbance was detected with a spectrophotometer at 405 nm.
The acetylcholinesterase inhibitory effect was counted as follows (Asample and Acontrol represent the absorbance of the tested sample and control, respectively):Acetylcholinesterase inhibitory activity (%) = (Acontrol − Asample)/Acontrol × 100%

[10] = test system: LPS-induced iNOS expression in RAW 264.7 murine macrophages; assay: Western blotting of LPS-induced iNOS expression; assay type: cell-based; settings: 50 μM; LPS-induced RAW 264.7; Western blot
Protocol: Western blotting was conducted with the previous procedure. Cells were treated with different concentrations of compounds and 100 ng/mL of LPS for a day. After rinsing cells with cold PBS, proteins were harvested with radioimmunoprecipitation assay buffer (RIPA buffer) and stored at −20 °C for succeeding procedure. Proteins were separated on a 12.5% SDS-polyacrylamide gel and then electrophoretically transferred to a PVDF membrane. The membrane was soaked in 2% bovine serum albumin (BSA) blocking buffer for 2 h, then washed 2–3 times with TBST. Proteins were treated by particular primary antibodies and immersed overnight. The following day, PVDF membranes were washed with TBST to remove residual primary antibodies, and then immersed with secondary antibodies for 2 h. Then, enhanced chemiluminescence solution was coated on the membrane and visualized using an ImageQuant LAS 4000 Mini Biomolecular Imager (GE Healthcare, Marlborough, MA, USA). Finally, we quantified band density by ImageJ software 1.53a (BioTechniques, New York, NY, USA).

[11] = RAW264.7, isolated components, LPS-treated RAW 264.7 cells, read-out: NO Inhibition IC50
[12] = isolated compounds, read-out: IC50 AChE (converted)

T1 sequence (O42275 24-633): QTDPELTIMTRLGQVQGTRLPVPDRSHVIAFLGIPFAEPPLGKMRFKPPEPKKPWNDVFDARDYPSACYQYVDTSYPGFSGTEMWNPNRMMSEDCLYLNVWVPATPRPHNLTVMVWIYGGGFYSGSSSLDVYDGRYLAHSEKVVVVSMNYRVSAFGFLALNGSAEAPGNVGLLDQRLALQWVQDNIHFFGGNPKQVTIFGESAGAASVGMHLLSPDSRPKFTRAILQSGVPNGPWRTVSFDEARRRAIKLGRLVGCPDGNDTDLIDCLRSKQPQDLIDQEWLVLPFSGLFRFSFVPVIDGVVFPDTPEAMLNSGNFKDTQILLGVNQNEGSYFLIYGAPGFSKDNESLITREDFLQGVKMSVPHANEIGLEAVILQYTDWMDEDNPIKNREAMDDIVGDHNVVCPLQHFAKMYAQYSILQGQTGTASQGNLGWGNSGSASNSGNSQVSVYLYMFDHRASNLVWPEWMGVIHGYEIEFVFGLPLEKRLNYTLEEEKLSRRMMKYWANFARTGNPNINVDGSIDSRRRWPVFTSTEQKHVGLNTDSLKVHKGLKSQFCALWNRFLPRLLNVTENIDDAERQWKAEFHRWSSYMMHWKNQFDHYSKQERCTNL

SMILES | AChE EF (enrichment factor) [1] | iNOS EF (enrichment factor) [2] | TE FRAP ([3]; isolated components) | EC50 [4] | EC50 [5] | EC50 [7] | further results
Oc1ccc2c(c1)CCc1cc(O)cc(O)c1-2 [2,4,7-Trihydroxy-9,10-dihydrophenanthrene] | 1.32% | 0.91% |  |  |  |  | 
Cc1cc(C(C)(C)C)c(O)c(C(C)(C)C)c1 [BHT, butylated hydroxytoluene, reference compound] |  |  | 4355.95 ± 99.23 mM/g | 90.8 ± 5.65 µM | 53.7 ± 1.48 µM |  | TE FRAP ([3]; solvent extracts): 4296.98 ± 48.40 mM/g; SC50 DPPH ([4]; solvent extracts): 36.64 ± 2.22 µg/mL; SC50 ABTS ([5]; solvent extracts): 46.83 ± 0.44 µg/mL
COc1cc(O)cc(CCc2cccc(O)c2)c1 [Batatasin III (3), batatasin III] | 31.87% | 27.18% | 559.67 ± 51.49 ^c mM/g | > 400 µM | 30.1 ± 1.7 µM | > 400 µM | TE FRAP ([3]; isolated components, listed as batatasin III): 559.67 ± 51.49 mM/g; IC50 [6, 11]: 51.3 ± 5.51 µM; IC50 [8]: 723 ± 53.5 µM; IC50 [9, 12]: 258 ± 18.5 µM
O=C(/C=C/c1ccc(O)c(O)c1)O[C@@H]1C[C@](O)(C(=O)O)C[C@@H](O)[C@H]1O [Chlorogenic acid, chlorogenic acid, reference compound] |  |  |  |  |  |  | IC50 [9, 12]: 236 ± 15.9 µM; IC50 ([9]; solvent extracts, read-out: IC50 AChE (converted)): 214 µM
COc1ccc2c(c1)CCc1cc(O)cc(OC)c1-2 [Coelonin] | 2.00% | 5.09% |  |  |  |  | 
O=c1cc(-c2ccc(O)c(O)c2)oc2cc(O[C@@H]3O[C@H](CO)[C@@H](O)[C@H](O)[C@H]3O)cc(O)c12 [Cynaroside, cynaroside, reference compound] |  |  |  |  |  | 50.6 ± 2.62 µM | SC50 Superoxide ([7]; solvent extracts): 112.76 ± 5.84 µg/mL
COc1cc(CCc2cc(OC)c(O)c(OC)c2)ccc1O [Dendrophenol (4), dendrophenol] | 59.48% | 65.11% | 1686.53 ± 16.61 ^c mM/g | 11.6 ± 0.77 µM | 7.64 ± 0.63 µM | > 400 µM | TE FRAP ([3]; isolated components, listed as dendrophenol): 1686.53 ± 16.61 mM/g; inhibition of iNOS expression [10]: 89.82%; IC50 [6, 11]: 14.3 ± 3.17 µM; IC50 [8]: 608 ± 48.2 µM; IC50 [9, 12]: 165 ± 13.2 µM
Oc1ccc(CCc2cc(O)cc(O)c2)cc1 [Dihydroresveratrol] | 0.08% | 0.62% |  |  |  |  | 
COc1ccc(CCc2cc(OC)c(OC)c(OC)c2)cc1O [Erianin] | 0.23% | 1.72% |  |  |  |  | 
COc1cc(O)cc(CCc2ccc(O)c(OC)c2)c1 [Gigantol (1), gigantol] | 54.60% | 44.84% | 1483.20 ± 63.49 ^c mM/g | 35.2 ± 1.34 µM | 12.2 ± 0.54 µM | > 400 µM | TE FRAP ([3]; isolated components, listed as gigantol): 1483.20 ± 63.49 mM/g; IC50 [6, 11]: 63.7 ± 11.4 µM; IC50 [8]: 470 ± 28.5 µM; IC50 [9, 12]: 176 ± 19.1 µM
COc1cc(O)cc2ccc3cccc(O)c3c12 [Moscatin (2), moscatin] | 66.31% | 88.99% | 1396.40 ± 57.03 ^c mM/g | 26.7 ± 1.63 µM | 10.3 ± 1.92 µM | > 400 µM | TE FRAP ([3]; isolated components, listed as moscatin): 1396.40 ± 57.03 mM/g; inhibition of iNOS expression [10]: 69.76%; IC50 ([6]; RAW264.7, read-out: NO Inhibition IC50): 23.5 ± 3.16 µM; IC50 [8]: 478 ± 33.4 µM; IC50 [9]: 162 ± 16.5 µM
COc1c(O)cc2ccc3cc(O)ccc3c2c1OC [Nudol] | 29.56% | 24.39% |  |  |  |  | 
O=c1c(O)c(-c2ccc(O)c(O)c2)oc2cc(O)cc(O)c12 [Quercetin, quercetin, reference compound] |  |  |  |  |  |  | IC50 [6, 11]: 23.1 ± 1.43 µM; IC50 ([6]; RAW264.7, solvent extracts, LPS-treated RAW 264.7 cells, read-out: NO Inhibition IC50): 6.98 ± 0.43 µg/mL
COc1cc(CCc2cc(O)cc(O)c2)ccc1O [Tristin] | 5.83% | 0.95% |  |  |  |  | 
